Measurements reported in US20160184201A1, “ANTIPERSPIRANT/DEODORANT COMPOSITIONS” (COLGATE-PALMOLIVE COMPANY, priority 2013, published 2016).

Test system: Staphyloccus haemolyticus
Test: Antimicrobial activity: minimum inhibition concentration by two-fold serial dilution in a 96-well plate (optical density, confirmed by agar streak)
Assay type: cell-based
Settings: for bacterial growth in the first well of the 96-well plate: 1% L-Lactide solution
Method: 1. Formulate a 1% or 10000 ppm and 3% or 30000 ppm solution of the neat L-Lactide active tested by weight and vortex until homogeneous in a 50 mL centrifuge tube. 2. Place solutions in shaking incubator at 200 rpm and 37° C. for 1 hour. 3. Repeat the formulation of the solution and shaking incubation for 4 hour and 24 hour time points. 4. Label 96-well plate to indicate positive and negative controls and the active tested against an odor causing bacteria, Staphyloccus haemolyticus. 5. Using a 96-well plate, pipette 100 uL of Tryptic Soy Broth (TSB) into all of the wells. 6. In the first well, add 100 uL of the active solution or desired solvent for positive and negative controls to achieve a total of 200 uL in the first column of wells. 7. Set the multi-channel pipette to 100 uL and begin mixing the contents in the first column of wells and transfer 100 uL of the mixture into each successive well creating two-fold serial dilutions. 8. Repeat until the 12th column is reached making sure to dispose the 100 uL from the last well leaving 100 uL in all of the wells. 9. In the negative control wells add 100 uL of Phosphate Buffered Saline (PBS). Add 100 uL of bacteria (optical density equals to 0.1) to all other wells. 10. Incubate 96-well plate overnight at 37° C. or at room temperature for 48 hours. 11. Minimum inhibition concentration of the sample is determined by measuring the optical density of the 96 plate.

**Q.** Which results are given for `CC1OC(=O)C(C)OC1=O` [L-Lactide, 3,6-dimethyl-1,4-dioxane-2,5-dione]?
**A.** bacterial growth in the first well of the 96-well plate (1 hour of shaking incubation (200 rpm, 37° C.), first well, 4-fold dilution of the sample): some bacterial growth; bacterial growth in the first well of the 96-well plate (4 hours of incubation, same first well, 4-fold dilution): complete bacteria kill; bacterial growth in wells 1 and 2 of the 96-well plate (3% L-Lactide solution, 1 hour of shaking incubation, dilution factor 4 and 8 fold): no bacterial growth; bacterial growth in the third well of the 96-well plate (3% L-Lactide solution, 24 hours of shaking incubation, third well, dilution 16 fold): bacteria growth is prevented
